Measurements: US20210052701A1, “Methods of Treating Vascular Leakage Using CXCL12 Peptides” (The Medical College of Wisconsin, Inc., priority 2018, published 2021)
Where no end group is shown, it is not given here. [ ]: non-standard residue; d: D form. sY = N[C@@H](Cc1ccc(OS(=O)(=O)O)cc1)C(=O)O

What was measured:
CXCL12 = CXCL12 (Homo sapiens, UniProt P48061); test: CXCL12 dimerization (biophysical measurements); type: binding; details: sulfopeptide bound to the sTyr21 recognition site
Source text: The present invention provides a constitutively monomeric CXCL12 variant (CXCL121) engineered to resist peptide-induced dimerization by maintaining steric repulsion of the chemokine helix. Six short CXCR4 peptides, centered on Tyr7, Tyr12, or Tyr21, were synthesized to study the contributions of individual sulfotyrosines in peptide binding and specificity. Peptides were titrated into CXCL12WT, CXCL122 (a constitutively dimeric variant of CXCL12 containing L36C/A65C mutations), or CXCL121 and the interaction was monitored by 2D NMR. While sulfopeptides encompassing sTyr7 and sTyr12 interacted nonspecifically, an […] Tyr7 peptide induced a new set of chemical shift perturbations in the CXCL12 monomer that were also observed upon binding of the intact CXCR41-38 N-terminal domain.

hPPAEC [1] = test: In vitro vascular permeability assay (FITC-dextran), hPPAEC monolayer, CXCR4/ACKR3 ligands without thrombin; type: cell-based, human; details: 50 nM ligand for 10 min, then FITC-dextran; no thrombin
Procedure: FIGS. 1A-1B show expression of CXCR4, ACKR3 and CXCR4:ACKR3 heteromers on hPPAEC and effects of CXCR4/ACKR3 ligands on hPPAEC monolayer permeability. (A) Detection of CXCR4, ACKR3 and CXCR4:ACKR3 heteromers on hPPAEC by PLA. Typical PLA images for the detection of individual receptors and CXCR4:ACKR3 heteromers. Images show merged PLA/40,6-diamidino-2-phenylindole dihydrochloride (DAPI) signals. Ctrl: Omission of one secondary antibody. (B) hPPAEC were grown to a confluent monolayer on collagen-coated permeable membranes. Cells were then exposed to vehicle or 50 nM of CXCR4/ACKR3 ligands for 10 minutes, as indicated, followed by the addition of FITC-dextran. Endothelial permeability was assessed by measuring the amount of FITC-dextran that permeated through the cell monolayer. N=3 in quadruplicate. No cells: 100% permeability, open squares. RFU: Relative fluorescence units. *: p<0.05 vs. vehicle (2-way ANOVA/Bonferroni's multiple comparison post hoc test).
Cells and cell lines—Human primary pulmonary artery endothelial cells (hPPAEC) (ATCC, PCS-100-022) and the human lung microvascular endothelial cell line HULEC-5a (ATCC, CRL-3244) were cultured in vascular cell basal medium (ATCC, PCS-100-030) with endothelial cell growth kit-VEGF (ATCC, PCS-100-041). The HTLA cell line, a HEK293 cell line stably expressing a tTA-dependent luciferase reporter and a β-arrestin2-TEV fusion gene, was generously provided by the laboratory of Dr. Bryan Roth and maintained in high glucose Dulbecco's Modified Eagle's Medium supplemented with 10% (vol/vol) FBS, 1× non-essential amino acids, 100 U/mL penicillin, 100 μg/mL streptomycin, 50 μg/mL hygromycin B, and 2 μg/mL puromycin. All cells were cultured at 37° C., 5% CO2 in a humidified atmosphere.
(§1) In vitro vascular permeability assays—Permeability assays were obtained from Millipore (ECM642) and performed as per manufacturer's instructions. In brief, 96-well collagen-coated permeability assay plates were pre-hydrated for 15 min, 5×10^5 cells were seeded on each well and grown to a confluent monolayer for 48 hours. Fluorescein isothiocyanate (FITC)-dextran (20 μg/mL) was then added on top of the monolayer and the amount of FITC-dextran that permeated through the monolayer was quantified by measuring fluorescence in a Synergy 2 Multi-mode Microplate Reader (BioTek, Winooski, Vt.) at various time points over a 255 min time period.

hPPAEC [2] = test: Effects of CXCR4 agonists / CXCL12 variants on thrombin-induced impairment of hPPAEC monolayer permeability; type: cell-based, human
Procedure: FIGS. 3A-3D show effects of CXCL12 and ubiquitin on thrombin-induced impairment of hPPAEC monolayer permeability. hPPAEC were grown to a confluent monolayer on collagen-coated permeable membranes. (A) hPPAEC were pre-treated with vehicle, 100 nM of CXCL12 or ubiquitin for 10 minutes, as indicated, and then exposed to thrombin (50 nM), followed by the addition of FITC-dextran. Vehicle: no thrombin. Endothelial permeability was assessed by measuring the amount of FITC-dextran that permeated through the cell monolayer. No cells: 100% permeability (open circles). RFU: Relative fluorescence units. N=3 in quadruplicate. *: p<0.05 vs. vehicle/thrombin. (B-D) hPPAEC were exposed to 35 nM of thrombin or vehicle. After 10 min, thrombin-exposed cells were treated with vehicle, CXCL12 (50 nM) and/or AMD3100 (10 μM) (B), with vehicle, ubiquitin (50 nM) and/or AMD3100 (10 μM) (C) or with various concentrations of ubiquitin (D) followed by the addition of FITC-dextran. The experimental conditions are indicated. Endothelial permeability was assessed by measuring the amount of FITC-dextran that permeated through the cell monolayer. RFU: Relative fluorescence units. N=3 in quadruplicate. *: p<0.05 vs. thrombin/vehicle (2-way ANOVA/Bonferroni's multiple comparison post hoc test).
(§2) FIGS. 7A-7D show dose-dependent effects of CXCL12α/β, CXCL12 (3-68) and CXCL12 mutants K27A/R41A/R47A, R47E and S-S4V on thrombin-induced impairment of hPPAEC monolayer permeability. hPPAEC cells were grown to a confluent monolayer on collagen-coated permeable membranes. hPPAEC were then exposed to 35 nM of thrombin. After 10 min, thrombin-exposed cells were treated with vehicle or 50 nM (A), 5 nM (B), 0.5 nM (C) or 0.05 nM (D) of the various proteins, as indicated. In (D) 5 nM CXCL12a was used as a positive control. N=3 in quadruplicate.
as §2, with “8A-8D” for “7A-7D”, “CXCL12α, CXCL121” for “CXCL12α/β, CXCL12 (3-68)”, “CXCL122” for “CXCL12 mutants K27A/R41A/R47A, R47E and S-S4V”, “CXCL12α” for “CXCL12a”
FIGS. 9A-9B show inhibition of thrombin-induced hyper-permeability of hPPAEC by CXCL12/CXCL12 variants. % inhibition: % inhibition of thrombin-induced hyperpermeability. Data from FIGS. 7 and 8 at t=255 min. N=3 in quadruplicate. *: p<0.05 vs. CXCL12a (2-way ANOVA/Bonferroni's multiple comparison post hoc test).
as §1

HULEC-5a = test: Effects of CXCL12 and ubiquitin on thrombin-induced impairment of HULEC-5a monolayer permeability; type: cell-based, human; details: thrombin 50 nM, after 10 min 50 nM ligand
Procedure: FIGS. 4A-4D show effects of CXCL12 and ubiquitin on thrombin-induced impairment of HULEC-5a monolayer permeability. (A) HULEC-5a were grown to a confluent monolayer on collagen-coated permeable membranes and then exposed to different concentration of thrombin for 10 min, followed by the addition of FITC-dextran. Endothelial permeability was assessed by measuring the amount of FITC-dextran that permeated through the cell monolayer. No cells: 100% permeability. RFU: Relative fluorescence units. N=3 in quadruplicate. (B) Dose-response curves for thrombin-induced permeability, data from A. 100% permeability=permeability in the absence of HULEC-5a. Open squares: Permeability at t=55 min. Light grey squares: Permeability at t=135 min. Dark grey squares: Permeability at t=255 min. […] Endothelial permeability was assessed by measuring the amount of FITC-dextran that permeated through the cell monolayer. RFU: Relative fluorescence units. […]
as §1, with “In brief, 96-well collagen-coated permeability assay plates were pre-hydrated for 15 min, 5×10^5 cells were seeded on each well and grown to a confluent monolayer for 48 hours.” left out

Chain of CXCL12 (P48061 22-89 limits assumed): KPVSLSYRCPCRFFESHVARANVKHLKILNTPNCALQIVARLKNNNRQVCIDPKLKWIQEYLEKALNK

sTyr21 sulfopeptide: short CXCR4 peptide centered on sulfated Tyr21 (SGD[sY]DSM)
increase of the CXCL12 dimerization affinity (CXCL12): eight-fold

ubiquitin
effect on hPPAEC monolayer permeability (hPPAEC [1]): did not affect hPPAEC permeability | effect of pre-treatment on thrombin-induced hyper-permeability of hPPAEC (hPPAEC [2]; 100 nM for 10 min, then thrombin (50 nM)): significantly attenuated thrombin-induced hyper-permeability of hPPAEC | effect on thrombin-induced permeability of hPPAEC when added after thrombin (hPPAEC [2]; thrombin 35 nM, after 10 min CXCL12 or ubiquitin 50 nM, AMD3100 10 μM): did not modulate thrombin-induced hyper-permeability | effect on thrombin-induced hyper-permeability at various concentrations (hPPAEC [2]; thrombin 35 nM, ubiquitin 30 nM-3 μM after thrombin): did not attenuate thrombin-induced hyper-permeability | effect on thrombin-induced hyper-permeability, ubiquitin plus AMD3100 (hPPAEC [2]; thrombin 35 nM, ubiquitin 50 nM plus AMD3100 10 μM): did not modulate thrombin-induced hyper-permeability | effect on thrombin-mediated impairment of HULEC-5a barrier function when added after thrombin (HULEC-5a): significantly reduced thrombin-mediated impairment of endothelial cell barrier function
